≈ marks a conversion by molar mass, not a printed value. Calls of active or inactive are those of the source. No cut-off for these calls is given here.
Legend:
Staphylococcus aureus [1] = test: Antibacterial activity against intracellular methicillin resistant Staphylococcus aureus USA400 infected in mouse J774 cells assessed as log10 reduction of viable bacterial cells incubated for 24 hrs followed by re-plating on tryptic soy agar plates at 37 degC for 18 to 22 hrs by broth microdilution assay; assay type: functional
Streptococcus pneumoniae [2] = test: Antibacterial activity against Methicillin resistant Streptococcus pneumoniae ATCC 700677 assessed as reduction in bacterial cell growth incubated for 18 to 20 hrs by broth microdilution method; assay type: functional
Acinetobacter baumannii = test: Bactericidal activity against Acinetobacter baumannii ATCC 19606 assessed as reduction in bacterial cell growth incubated for 18 to 20 hrs followed by re-plating on tryptic soy agar plates at 37 degC for 18 hrs by broth microdilution assay; assay type: functional
Staphylococcus aureus [3] = test: Antibacterial activity against methicillin resistant Staphylococcus aureus NRS119 assessed as reduction in bacterial cell growth incubated for 18 to 20 hrs by broth microdilution method; assay type: functional
Staphylococcus aureus [4] = test: Bactericidal activity against Staphylococcus aureus ATCC 6538 assessed as reduction in bacterial cell growth incubated for 18 to 20 hrs followed by re-plating on tryptic soy agar plates at 37 degC for 18 hrs by broth microdilution assay; assay type: functional
Staphylococcus aureus [5] = test: Antibacterial activity against methicillin resistant Staphylococcus aureus USA400 assessed as reduction in bacterial cell growth incubated for 18 to 20 hrs by broth microdilution method; assay type: functional
Staphylococcus aureus [6] = test: Bactericidal activity against Staphylococcus aureus NRS107 assessed as reduction in bacterial cell growth incubated for 18 to 20 hrs followed by re-plating on tryptic soy agar plates at 37 degC for 18 hrs by broth microdilution assay; assay type: functional
Escherichia coli [7] = test: Antibacterial activity against Escherichia coli JW55031 harboring deltatolC mutant assessed as reduction in bacterial cell growth incubated for 18 to 20 hrs by broth microdilution method; assay type: functional
[8] = system: Staphylococcus epidermidis; test: Antibacterial activity against methicillin resistant Staphylococcus epidermidis NRS101 assessed as reduction in bacterial cell growth incubated for 18 to 20 hrs by broth microdilution method; assay type: functional
Enterococcus faecalis [9] = test: Antibacterial activity against vancomycin resistant Enterococcus faecalis ATCC 51299 assessed as reduction in bacterial cell growth incubated for 18 to 20 hrs by broth microdilution method; assay type: functional
[10] = Solubility of compound in PBS after 2 hrs by turbidity based absorbance analysis; assay type: physicochemical
J774 = test: Cytotoxicity against mouse J774 assessed as reduction in cell viability at 16 ug/ml incubated for 24 hrs by MTS assay; assay type: cell-based; conditions: j774, 24 h
Staphylococcus aureus [11] = test: Antibacterial activity against Staphylococcus aureus NRS107 assessed as reduction in bacterial cell growth incubated for 18 to 20 hrs by broth microdilution method; assay type: functional
Pseudomonas aeruginosa [12] = test: Antibacterial activity against Pseudomonas aeruginosa ATCC 15442 assessed as reduction in bacterial cell growth incubated for 18 to 20 hrs by broth microdilution method; assay type: functional
Klebsiella pneumoniae [13] = test: Bactericidal activity against Klebsiella pneumoniae BAA-1706 assessed as reduction in bacterial cell growth incubated for 18 to 20 hrs followed by re-plating on tryptic soy agar plates at 37 degC for 18 hrs by broth microdilution assay; assay type: functional
Listeria monocytogenes [14] = test: Bactericidal activity against Listeria monocytogenes ATCC 19111 assessed as reduction in bacterial cell growth incubated for 18 to 20 hrs followed by re-plating on tryptic soy agar plates at 37 degC for 18 hrs by broth microdilution assay; assay type: functional
Escherichia coli [15] = test: Antibacterial activity against Escherichia coli BW25113 assessed as reduction in bacterial cell growth incubated for 18 to 20 hrs by broth microdilution method; assay type: functional
Enterococcus faecalis [16] = test: Bactericidal activity against vancomycin resistant Enterococcus faecalis ATCC 51299 assessed as reduction in bacterial cell growth incubated for 18 to 20 hrs followed by re-plating on tryptic soy agar plates at 37 degC for 18 hrs by broth microdilution assay; assay type: functional
Enterococcus faecium = test: Bactericidal activity against vancomycin resistant Enterococcus faecium ATCC 700221 assessed as reduction in bacterial cell growth incubated for 18 to 20 hrs followed by re-plating on tryptic soy agar plates at 37 degC for 18 hrs by broth microdilution assay; assay type: functional
Escherichia coli [17] = test: BActericidal activity against Escherichia coli BW25113 assessed as reduction in bacterial cell growth incubated for 18 to 20 hrs followed by re-plating on tryptic soy agar plates at 37 degC for 18 hrs by broth microdilution assay; assay type: functional
Staphylococcus aureus [18] = test: Bactericidal activity against methicillin resistant Staphylococcus aureus NRS119 assessed as reduction in bacterial cell growth incubated for 18 to 20 hrs followed by re-plating on tryptic soy agar plates at 37 degC for 18 hrs by broth microdilution assay; assay type: functional
Staphylococcus aureus [19] = test: Antibacterial activity against methicillin-resistant Staphylococcus aureus USA300 assessed as reduction in bacterial cell growth incubated for 18 to 20 hrs by broth microdilution method; assay type: functional
Staphylococcus aureus [20] = test: Antibacterial activity against Staphylococcus aureus ATCC 6538 assessed as reduction in bacterial cell growth incubated for 18 to 20 hrs by broth microdilution method; assay type: functional
Streptococcus pneumoniae [21] = test: Bactericidal activity against Methicillin resistant Streptococcus pneumoniae ATCC 700677 assessed as reduction in bacterial cell growth incubated for 18 to 20 hrs followed by re-plating on tryptic soy agar plates at 37 degC for 18 hrs by broth microdilution assay; assay type: functional
Streptococcus pneumoniae [22] = test: Bactericidal activity against Cephalosporin resistant Streptococcus pneumoniae ATCC 51916 assessed as reduction in bacterial cell growth incubated for 18 to 20 hrs followed by re-plating on tryptic soy agar plates at 37 degC for 18 hrs by broth microdilution assay; assay type: functional
Klebsiella pneumoniae [23] = test: Antibacterial activity against Klebsiella pneumoniae BAA-1706 assessed as reduction in bacterial cell growth incubated for 18 to 20 hrs by broth microdilution method; assay type: functional
Staphylococcus aureus [24] = test: Bactericidal activity against vancomycin resistant Staphylococcus aureus VRS12 assessed as reduction in bacterial cell growth incubated for 18 to 20 hrs followed by re-plating on tryptic soy agar plates at 37 degC for 18 hrs by broth microdilution assay; assay type: functional
Staphylococcus aureus [25] = test: Bactericidal activity against vancomycin resistant Staphylococcus aureus VRS10 assessed as reduction in bacterial cell growth incubated for 18 to 20 hrs followed by re-plating on tryptic soy agar plates at 37 degC for 18 hrs by broth microdilution assay; assay type: functional
Staphylococcus aureus [26] = test: Antibacterial activity against vancomycin resistant Staphylococcus aureus VRS10 assessed as reduction in bacterial cell growth incubated for 18 to 20 hrs by broth microdilution method; assay type: functional
Staphylococcus aureus [27] = test: Bactericidal activity against methicillin-resistant Staphylococcus aureus USA300 assessed as reduction in bacterial cell growth incubated for 18 to 20 hrs followed by re-plating on tryptic soy agar plates at 37 degC for 18 hrs by broth microdilution assay; assay type: functional
Pseudomonas aeruginosa [28] = test: Bactericidal activity against Pseudomonas aeruginosa ATCC 15442 assessed as reduction in bacterial cell growth incubated for 18 to 20 hrs followed by re-plating on tryptic soy agar plates at 37 degC for 18 hrs by broth microdilution assay; assay type: functional
Staphylococcus aureus [29] = test: Bactericidal activity against vancomycin resistant Staphylococcus aureus VRS11a assessed as reduction in bacterial cell growth incubated for 18 to 20 hrs followed by re-plating on tryptic soy agar plates at 37 degC for 18 hrs by broth microdilution assay; assay type: functional
Listeria monocytogenes [30] = test: Antibacterial activity against Listeria monocytogenes ATCC 19111 assessed as reduction in bacterial cell growth incubated for 18 to 20 hrs by broth microdilution method; assay type: functional
Staphylococcus aureus [31] = test: Antibacterial activity against vancomycin resistant Staphylococcus aureus VRS12 assessed as reduction in bacterial cell growth incubated for 18 to 20 hrs by broth microdilution method; assay type: functional

Row | Structure (SMILES) | MIC (Streptococcus pneumoniae [2]) | MBC (Acinetobacter baumannii) | MIC (Staphylococcus aureus [3]) | MBC (Staphylococcus aureus [4]) | MIC (Staphylococcus aureus [5]) | MBC (Staphylococcus aureus [6]) | MIC (Escherichia coli [7]) | MIC [8] | MIC (Enterococcus faecalis [9]) | solubility kinetic at 2 h [10] | Activity (J774) | MIC (Staphylococcus aureus [11]) | MIC (Pseudomonas aeruginosa [12]) | MBC (Klebsiella pneumoniae [13]) | MBC (Listeria monocytogenes [14]) | MIC (Escherichia coli [15]) | MBC (Enterococcus faecalis [16]) | MBC (Enterococcus faecium) | MBC (Escherichia coli [17]) | MBC (Staphylococcus aureus [18]) | other results
1 | C/C(=N\NC(=N)N)c1sc(-c2ccc(C#CC3(O)CCCCC3)cc2)nc1C | 4 µg/mL (≈ 10.1 µM) | 64 µg/mL (≈ 162 µM) | 2 µg/mL (≈ 5.06 µM) | 4 µg/mL (≈ 10.1 µM) | 4 µg/mL (≈ 10.1 µM) | 8 µg/mL (≈ 20.2 µM) | 32 µg/mL (≈ 80.9 µM) | 4 µg/mL (≈ 10.1 µM) | 8 µg/mL (≈ 20.2 µM) | 147 µM (≈ 58.1 µg/mL) | Non-Toxic | 4 µg/mL (≈ 10.1 µM) | > 64 µg/mL | > 64 µg/mL | 8 µg/mL (≈ 20.2 µM) | > 64 µg/mL | 16 µg/mL (≈ 40.5 µM) | 1 µg/mL (≈ 2.53 µM) | > 64 µg/mL | 4 µg/mL (≈ 10.1 µM) | Activity call (Staphylococcus aureus [1]): Active; MIC (Staphylococcus aureus [19]): 4 µg/mL (≈ 10.1 µM); MIC (Staphylococcus aureus [20]): 2 µg/mL (≈ 5.06 µM); MBC (Streptococcus pneumoniae [21]): 8 µg/mL (≈ 20.2 µM); MBC (Streptococcus pneumoniae [22]): 8 µg/mL (≈ 20.2 µM); MIC (Klebsiella pneumoniae [23]): > 64 µg/mL; MBC (Staphylococcus aureus [24]): 8 µg/mL (≈ 20.2 µM); MBC (Staphylococcus aureus [25]): 8 µg/mL (≈ 20.2 µM); MIC (Staphylococcus aureus [26]): 2 µg/mL (≈ 5.06 µM); MBC (Staphylococcus aureus [27]): 16 µg/mL (≈ 40.5 µM); MBC (Pseudomonas aeruginosa [28]): > 64 µg/mL; MBC (Staphylococcus aureus [29]): 8 µg/mL (≈ 20.2 µM); MIC (Listeria monocytogenes [30]): 4 µg/mL (≈ 10.1 µM); MIC (Staphylococcus aureus [31]): 4 µg/mL (≈ 10.1 µM)
2 | C/C(=N\NC(=N)N)c1sc(-c2ccc(C#CC(C)(C)O)cc2)nc1C | 4 µg/mL (≈ 11.3 µM) | 64 µg/mL (≈ 180 µM) | 2 µg/mL (≈ 5.63 µM) | 4 µg/mL (≈ 11.3 µM) | 2 µg/mL (≈ 5.63 µM) | 4 µg/mL (≈ 11.3 µM) | 16 µg/mL (≈ 45 µM) | 4 µg/mL (≈ 11.3 µM) | 4 µg/mL (≈ 11.3 µM) | 320 µM (≈ 114 µg/mL) | Toxic | 4 µg/mL (≈ 11.3 µM) | > 64 µg/mL | > 64 µg/mL | 8 µg/mL (≈ 22.5 µM) | > 64 µg/mL | 8 µg/mL (≈ 22.5 µM) | 4 µg/mL (≈ 11.3 µM) | > 64 µg/mL | 4 µg/mL (≈ 11.3 µM) | MIC (Staphylococcus aureus [19]): 4 µg/mL (≈ 11.3 µM); MIC (Staphylococcus aureus [20]): 2 µg/mL (≈ 5.63 µM); MBC (Streptococcus pneumoniae [21]): 8 µg/mL (≈ 22.5 µM); MBC (Streptococcus pneumoniae [22]): 8 µg/mL (≈ 22.5 µM); MIC (Klebsiella pneumoniae [23]): > 64 µg/mL; MBC (Staphylococcus aureus [24]): 16 µg/mL (≈ 45 µM); MBC (Staphylococcus aureus [25]): 16 µg/mL (≈ 45 µM); MIC (Staphylococcus aureus [26]): 4 µg/mL (≈ 11.3 µM); MBC (Staphylococcus aureus [27]): 16 µg/mL (≈ 45 µM); MBC (Pseudomonas aeruginosa [28]): > 64 µg/mL; MBC (Staphylococcus aureus [29]): 4 µg/mL (≈ 11.3 µM); MIC (Listeria monocytogenes [30]): 4 µg/mL (≈ 11.3 µM); MIC (Staphylococcus aureus [31]): 4 µg/mL (≈ 11.3 µM)

From ChEMBL document CHEMBL4393697, “Lipophilic efficient phenylthiazoles with potent undecaprenyl pyrophosphatase inhibitory activity” (Eur J Med Chem, 2019)
